Measured values: PMC6437697 (Journal of Medicinal Chemistry, 2019)

Assays:
Assay in all cases: KINOMEscan
Format in all cases: binding
Conditions in all cases: read-out: % control activity remaining
[1] = biological target: T1, PRKR (Homo sapiens, UniProt P19525)
T1 construct: purchased Eurofins DiscoverX KINOMEscan

[2] = biological target: T2, NEK9 (Homo sapiens, UniProt Q8TD19)
T2 construct: purchased Eurofins DiscoverX KINOMEscan
T2 sequence (Q8TD19 1-979): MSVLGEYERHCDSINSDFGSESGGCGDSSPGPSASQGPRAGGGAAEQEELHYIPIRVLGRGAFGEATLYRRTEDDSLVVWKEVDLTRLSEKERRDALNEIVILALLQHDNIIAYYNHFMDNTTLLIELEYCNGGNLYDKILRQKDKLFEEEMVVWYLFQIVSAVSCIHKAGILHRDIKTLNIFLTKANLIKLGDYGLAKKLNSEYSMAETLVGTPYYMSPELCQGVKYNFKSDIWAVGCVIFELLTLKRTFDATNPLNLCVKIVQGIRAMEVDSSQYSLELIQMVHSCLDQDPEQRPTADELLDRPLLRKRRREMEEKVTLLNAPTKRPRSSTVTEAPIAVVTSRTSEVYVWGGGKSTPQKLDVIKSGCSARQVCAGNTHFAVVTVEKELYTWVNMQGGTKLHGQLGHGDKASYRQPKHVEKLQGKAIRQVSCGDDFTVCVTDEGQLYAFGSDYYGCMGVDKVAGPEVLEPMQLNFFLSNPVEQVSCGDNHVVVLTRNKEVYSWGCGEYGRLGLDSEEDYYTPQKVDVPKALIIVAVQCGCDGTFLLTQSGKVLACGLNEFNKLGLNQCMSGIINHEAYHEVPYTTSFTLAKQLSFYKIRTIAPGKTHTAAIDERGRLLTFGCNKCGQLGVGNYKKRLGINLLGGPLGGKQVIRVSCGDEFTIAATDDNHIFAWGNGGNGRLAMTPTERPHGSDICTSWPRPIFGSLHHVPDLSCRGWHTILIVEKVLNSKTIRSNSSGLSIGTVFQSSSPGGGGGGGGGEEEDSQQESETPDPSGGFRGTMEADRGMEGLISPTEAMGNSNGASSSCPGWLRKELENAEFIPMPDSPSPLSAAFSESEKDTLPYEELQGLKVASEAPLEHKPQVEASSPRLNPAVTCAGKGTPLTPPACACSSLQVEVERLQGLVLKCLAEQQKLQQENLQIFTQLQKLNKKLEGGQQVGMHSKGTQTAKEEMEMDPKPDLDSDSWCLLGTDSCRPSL

[3] = biological target: T3, ABL2 (Homo sapiens, UniProt P42684)
T3 construct: purchased Eurofins DiscoverX KINOMEscan

[4] = biological target: T4, PRKCQ (Homo sapiens, UniProt Q04759)
T4 construct: purchased Eurofins DiscoverX KINOMEscan

[5] = biological target: T5, FGR (Homo sapiens, UniProt P09769)
T5 construct: purchased Eurofins DiscoverX KINOMEscan

[6] = biological target: T6, TESK1 (Homo sapiens, UniProt Q15569)
T6 construct: purchased Eurofins DiscoverX KINOMEscan

[7] = biological target: T7, MRCKB (Homo sapiens, UniProt Q9Y5S2)
T7 construct: purchased Eurofins DiscoverX KINOMEscan

[8] = biological target: T8, PLK3 (Homo sapiens, UniProt Q9H4B4)
T8 construct: purchased Eurofins DiscoverX KINOMEscan

[9] = biological target: T9, TAOK2 (Homo sapiens, UniProt Q9UL54)
T9 construct: purchased Eurofins DiscoverX KINOMEscan
T9 sequence (Q9UL54 1-1235): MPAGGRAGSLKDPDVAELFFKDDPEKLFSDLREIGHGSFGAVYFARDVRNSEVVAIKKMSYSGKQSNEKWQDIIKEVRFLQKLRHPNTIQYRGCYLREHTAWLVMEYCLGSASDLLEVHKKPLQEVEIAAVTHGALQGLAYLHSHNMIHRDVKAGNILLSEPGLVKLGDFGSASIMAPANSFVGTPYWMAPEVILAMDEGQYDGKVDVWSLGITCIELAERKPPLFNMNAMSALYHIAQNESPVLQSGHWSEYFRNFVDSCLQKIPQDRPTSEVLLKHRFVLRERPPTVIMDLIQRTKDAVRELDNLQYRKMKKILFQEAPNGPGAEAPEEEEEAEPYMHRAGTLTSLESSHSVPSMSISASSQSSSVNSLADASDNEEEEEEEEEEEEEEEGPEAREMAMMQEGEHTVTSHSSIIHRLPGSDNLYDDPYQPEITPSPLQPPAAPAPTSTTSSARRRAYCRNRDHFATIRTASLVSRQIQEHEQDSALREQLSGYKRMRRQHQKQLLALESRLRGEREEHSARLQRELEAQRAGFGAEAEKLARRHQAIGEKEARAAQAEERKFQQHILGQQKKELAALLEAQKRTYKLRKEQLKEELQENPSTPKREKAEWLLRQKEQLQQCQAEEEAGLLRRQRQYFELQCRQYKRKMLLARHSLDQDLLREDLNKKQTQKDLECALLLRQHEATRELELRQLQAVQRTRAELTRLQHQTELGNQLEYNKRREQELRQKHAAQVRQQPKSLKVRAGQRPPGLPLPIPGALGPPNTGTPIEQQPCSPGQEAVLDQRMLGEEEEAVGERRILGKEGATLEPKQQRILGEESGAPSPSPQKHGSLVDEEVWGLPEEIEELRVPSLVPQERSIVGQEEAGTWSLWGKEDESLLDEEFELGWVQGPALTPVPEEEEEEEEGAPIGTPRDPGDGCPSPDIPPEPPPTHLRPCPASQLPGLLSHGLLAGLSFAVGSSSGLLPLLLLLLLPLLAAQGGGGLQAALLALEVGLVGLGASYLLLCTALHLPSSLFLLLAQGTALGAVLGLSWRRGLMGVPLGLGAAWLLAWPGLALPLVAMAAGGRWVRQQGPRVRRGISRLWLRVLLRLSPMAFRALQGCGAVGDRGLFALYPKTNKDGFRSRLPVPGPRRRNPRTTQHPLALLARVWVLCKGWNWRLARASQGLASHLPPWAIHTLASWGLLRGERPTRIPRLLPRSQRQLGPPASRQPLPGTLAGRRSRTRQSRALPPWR

[10] = biological target: T10, TLK2 (Homo sapiens, UniProt Q86UE8)
T10 construct: purchased Eurofins DiscoverX KINOMEscan
T10 sequence (Q86UE8 whole entry): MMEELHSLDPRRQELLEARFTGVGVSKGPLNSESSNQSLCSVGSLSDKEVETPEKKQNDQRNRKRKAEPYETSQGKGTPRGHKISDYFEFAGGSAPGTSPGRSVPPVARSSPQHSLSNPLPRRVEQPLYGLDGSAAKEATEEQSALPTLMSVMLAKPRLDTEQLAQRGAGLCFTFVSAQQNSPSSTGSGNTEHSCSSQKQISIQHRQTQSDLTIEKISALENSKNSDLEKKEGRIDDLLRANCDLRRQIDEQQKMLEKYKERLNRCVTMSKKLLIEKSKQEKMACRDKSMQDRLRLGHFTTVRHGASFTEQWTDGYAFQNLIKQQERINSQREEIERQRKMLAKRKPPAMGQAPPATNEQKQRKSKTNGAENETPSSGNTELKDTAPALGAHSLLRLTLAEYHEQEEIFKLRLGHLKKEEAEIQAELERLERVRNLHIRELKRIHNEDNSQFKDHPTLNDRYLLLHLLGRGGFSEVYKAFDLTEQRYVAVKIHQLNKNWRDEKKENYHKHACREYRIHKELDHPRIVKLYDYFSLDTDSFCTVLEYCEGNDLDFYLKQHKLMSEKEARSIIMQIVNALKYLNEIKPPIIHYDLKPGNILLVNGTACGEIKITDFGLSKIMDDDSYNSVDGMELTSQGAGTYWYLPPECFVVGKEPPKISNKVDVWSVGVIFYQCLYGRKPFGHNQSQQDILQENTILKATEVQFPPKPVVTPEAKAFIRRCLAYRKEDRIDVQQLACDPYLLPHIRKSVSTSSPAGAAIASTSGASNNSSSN

T7 sequence (Q9Y5S2 whole entry): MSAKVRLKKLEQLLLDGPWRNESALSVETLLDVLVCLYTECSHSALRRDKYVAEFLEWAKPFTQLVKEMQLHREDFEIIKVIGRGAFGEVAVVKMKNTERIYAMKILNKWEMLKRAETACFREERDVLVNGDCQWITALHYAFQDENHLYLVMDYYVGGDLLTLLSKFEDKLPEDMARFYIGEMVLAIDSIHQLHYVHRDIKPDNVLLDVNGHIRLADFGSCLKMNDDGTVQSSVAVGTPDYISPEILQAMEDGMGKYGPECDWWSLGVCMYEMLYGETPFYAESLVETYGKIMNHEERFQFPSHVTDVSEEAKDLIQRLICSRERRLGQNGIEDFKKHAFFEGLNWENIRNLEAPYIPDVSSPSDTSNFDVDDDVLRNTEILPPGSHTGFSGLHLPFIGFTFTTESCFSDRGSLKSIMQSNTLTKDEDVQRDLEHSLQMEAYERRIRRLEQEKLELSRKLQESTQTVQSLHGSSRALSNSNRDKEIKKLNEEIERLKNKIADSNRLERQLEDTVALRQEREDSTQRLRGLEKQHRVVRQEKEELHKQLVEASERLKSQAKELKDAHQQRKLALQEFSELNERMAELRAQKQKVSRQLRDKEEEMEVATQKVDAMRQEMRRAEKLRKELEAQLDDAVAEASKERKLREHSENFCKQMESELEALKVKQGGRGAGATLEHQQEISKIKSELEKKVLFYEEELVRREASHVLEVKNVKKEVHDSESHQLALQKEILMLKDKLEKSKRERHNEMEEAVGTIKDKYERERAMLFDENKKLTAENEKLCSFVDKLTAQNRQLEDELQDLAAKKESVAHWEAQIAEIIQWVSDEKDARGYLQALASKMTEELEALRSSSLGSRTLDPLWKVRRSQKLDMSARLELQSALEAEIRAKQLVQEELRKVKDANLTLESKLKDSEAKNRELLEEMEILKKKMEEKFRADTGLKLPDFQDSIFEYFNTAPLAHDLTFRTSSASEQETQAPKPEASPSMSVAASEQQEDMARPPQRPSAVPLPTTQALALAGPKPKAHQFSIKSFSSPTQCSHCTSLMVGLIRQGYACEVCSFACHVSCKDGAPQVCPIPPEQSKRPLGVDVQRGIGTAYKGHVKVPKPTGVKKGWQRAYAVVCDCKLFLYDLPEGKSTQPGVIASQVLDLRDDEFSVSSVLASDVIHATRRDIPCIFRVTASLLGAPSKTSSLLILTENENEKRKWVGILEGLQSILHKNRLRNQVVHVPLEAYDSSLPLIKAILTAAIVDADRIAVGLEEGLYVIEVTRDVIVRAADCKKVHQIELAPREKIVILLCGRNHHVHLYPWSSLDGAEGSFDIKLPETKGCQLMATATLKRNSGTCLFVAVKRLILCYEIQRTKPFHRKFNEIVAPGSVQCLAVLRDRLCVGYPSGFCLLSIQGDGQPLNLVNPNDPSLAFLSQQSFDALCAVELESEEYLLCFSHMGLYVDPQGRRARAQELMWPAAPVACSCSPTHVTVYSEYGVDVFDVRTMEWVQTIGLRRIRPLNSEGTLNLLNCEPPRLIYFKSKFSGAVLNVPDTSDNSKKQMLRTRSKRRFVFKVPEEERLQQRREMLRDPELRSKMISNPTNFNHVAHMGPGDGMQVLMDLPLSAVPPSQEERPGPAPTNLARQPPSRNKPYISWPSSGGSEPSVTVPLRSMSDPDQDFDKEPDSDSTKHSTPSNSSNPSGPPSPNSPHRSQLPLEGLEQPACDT
T6 sequence (Q15569 whole entry): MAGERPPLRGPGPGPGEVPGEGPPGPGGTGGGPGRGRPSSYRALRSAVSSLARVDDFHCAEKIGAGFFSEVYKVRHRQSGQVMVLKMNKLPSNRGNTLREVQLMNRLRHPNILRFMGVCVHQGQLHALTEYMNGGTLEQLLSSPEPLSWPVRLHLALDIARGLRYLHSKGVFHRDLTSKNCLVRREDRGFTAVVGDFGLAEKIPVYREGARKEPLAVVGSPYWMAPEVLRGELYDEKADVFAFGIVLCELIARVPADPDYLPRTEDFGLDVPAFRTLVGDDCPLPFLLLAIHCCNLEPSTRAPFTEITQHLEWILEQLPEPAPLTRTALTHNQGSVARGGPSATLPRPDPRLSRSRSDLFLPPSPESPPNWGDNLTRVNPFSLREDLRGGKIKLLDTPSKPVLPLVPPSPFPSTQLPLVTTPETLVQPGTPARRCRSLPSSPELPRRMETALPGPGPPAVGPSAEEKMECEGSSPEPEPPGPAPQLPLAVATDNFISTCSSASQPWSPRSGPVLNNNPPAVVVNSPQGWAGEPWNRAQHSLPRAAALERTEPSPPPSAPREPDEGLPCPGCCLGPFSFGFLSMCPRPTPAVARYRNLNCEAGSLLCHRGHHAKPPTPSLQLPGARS
T4 sequence (Q04759 whole entry): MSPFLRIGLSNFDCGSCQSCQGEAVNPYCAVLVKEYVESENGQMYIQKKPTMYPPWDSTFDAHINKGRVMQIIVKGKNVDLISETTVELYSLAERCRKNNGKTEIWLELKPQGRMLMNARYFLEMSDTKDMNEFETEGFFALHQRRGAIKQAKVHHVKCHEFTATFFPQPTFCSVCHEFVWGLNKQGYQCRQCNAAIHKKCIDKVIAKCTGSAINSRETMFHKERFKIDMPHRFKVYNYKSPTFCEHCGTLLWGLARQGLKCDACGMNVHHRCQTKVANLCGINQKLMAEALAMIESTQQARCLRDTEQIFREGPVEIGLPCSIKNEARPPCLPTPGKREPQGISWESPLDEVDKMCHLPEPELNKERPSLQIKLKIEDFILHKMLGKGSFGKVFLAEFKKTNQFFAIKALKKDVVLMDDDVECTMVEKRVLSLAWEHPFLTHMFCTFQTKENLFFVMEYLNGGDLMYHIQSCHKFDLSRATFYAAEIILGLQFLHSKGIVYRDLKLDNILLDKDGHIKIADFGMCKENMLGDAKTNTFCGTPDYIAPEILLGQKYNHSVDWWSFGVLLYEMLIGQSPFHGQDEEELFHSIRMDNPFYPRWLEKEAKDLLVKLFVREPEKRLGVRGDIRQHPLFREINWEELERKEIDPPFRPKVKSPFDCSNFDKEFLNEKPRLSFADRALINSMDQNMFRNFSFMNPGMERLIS
T8 sequence (Q9H4B4 whole entry): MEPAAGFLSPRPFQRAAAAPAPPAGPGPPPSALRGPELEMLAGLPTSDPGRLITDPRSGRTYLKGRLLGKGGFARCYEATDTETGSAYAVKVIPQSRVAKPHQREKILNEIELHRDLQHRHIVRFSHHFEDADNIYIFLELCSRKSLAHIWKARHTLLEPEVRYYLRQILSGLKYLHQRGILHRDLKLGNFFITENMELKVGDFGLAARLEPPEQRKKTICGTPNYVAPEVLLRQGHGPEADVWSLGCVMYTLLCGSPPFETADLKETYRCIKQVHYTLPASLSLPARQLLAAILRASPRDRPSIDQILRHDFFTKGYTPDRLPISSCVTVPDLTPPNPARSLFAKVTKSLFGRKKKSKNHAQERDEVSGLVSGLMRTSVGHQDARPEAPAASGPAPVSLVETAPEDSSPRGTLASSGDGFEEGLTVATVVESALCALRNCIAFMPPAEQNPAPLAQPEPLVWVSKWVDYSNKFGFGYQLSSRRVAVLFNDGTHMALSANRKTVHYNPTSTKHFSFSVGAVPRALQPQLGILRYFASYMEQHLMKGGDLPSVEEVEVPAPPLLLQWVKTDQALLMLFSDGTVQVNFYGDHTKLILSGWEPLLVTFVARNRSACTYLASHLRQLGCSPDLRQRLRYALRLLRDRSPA
T5 sequence (P09769 whole entry): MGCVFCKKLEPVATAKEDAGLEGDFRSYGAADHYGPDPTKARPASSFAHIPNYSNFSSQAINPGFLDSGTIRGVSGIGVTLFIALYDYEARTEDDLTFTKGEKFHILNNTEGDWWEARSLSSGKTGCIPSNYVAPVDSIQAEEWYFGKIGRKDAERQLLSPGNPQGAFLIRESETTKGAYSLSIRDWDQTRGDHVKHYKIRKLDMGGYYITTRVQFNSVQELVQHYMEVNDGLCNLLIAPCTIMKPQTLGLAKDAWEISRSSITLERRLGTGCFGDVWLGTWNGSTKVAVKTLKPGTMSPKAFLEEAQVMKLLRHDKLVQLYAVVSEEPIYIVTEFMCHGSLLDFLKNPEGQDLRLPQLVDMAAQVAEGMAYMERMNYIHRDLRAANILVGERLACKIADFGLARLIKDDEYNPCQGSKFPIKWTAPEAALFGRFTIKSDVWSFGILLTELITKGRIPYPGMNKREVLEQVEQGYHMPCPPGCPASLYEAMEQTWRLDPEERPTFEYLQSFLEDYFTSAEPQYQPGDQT

With `Clc1cc(NCC2CC2)c2ncc(-c3ccc4[nH]ncc4c3)n2n1` [compound 2, 6-Chloro-N-(cyclopropylmethyl)-3-(1H-indazol-5-yl)imidazo[1,2-b]pyridazin-8-amine] the remaining binding at 1 µM [1] was 97%, the remaining binding at 1 µM [2] was 100% and the remaining binding at 1 µM [3] was 100%. It also gave a remaining binding at 1 µM [4] of 94%, a remaining binding at 1 µM [5] of 75% and a remaining binding at 1 µM [6] of 92%. For the same compound, the remaining binding at 1 µM [7] was 64%, the remaining binding at 1 µM [8] was 90% and the remaining binding at 1 µM [9] was 87%. It also gave a remaining binding at 1 µM [10] of 98%.

`O=C(CN1CCOCC1)N[C@H]1CC[C@H](Nc2cc(Cl)nn3c(-c4ccc5[nH]ncc5c4)cnc23)CC1` [compound 26] showed a remaining binding at 1 µM [1] of 97%, a remaining binding at 1 µM [2] of 91% and a remaining binding at 1 µM [3] of 56%. The remaining binding at 1 µM [4] was 85%, the remaining binding at 1 µM [5] was 93% and the remaining binding at 1 µM [6] was 91%. For the same compound, the remaining binding at 1 µM [7] was 97%, the remaining binding at 1 µM [8] was 89% and the remaining binding at 1 µM [9] was 100%. For the same compound, the remaining binding at 1 µM [10] was 95%.

In the case of `CN1CCC(CNc2cc(Cl)nn3c(-c4cc5nc(Nc6ccccc6)[nH]c5cc4F)cnc23)CC1` [compound 31, 6-Chloro-3-(6-fluoro-2-(phenylamino)-1H-benzo[d]imidazol-5-yl)-N-((1-methylpiperidin-4-yl)methyl)imidazo[1,2-b]pyridazin-8-amine], the remaining binding at 1 µM [1] is reported as 81%, the remaining binding at 1 µM [2] is reported as 100% and the remaining binding at 1 µM [3] is reported as 92%. It also gave a remaining binding at 1 µM [4] of 100%, a remaining binding at 1 µM [5] of 100% and a remaining binding at 1 µM [6] of 100%. For the same compound, the remaining binding at 1 µM [7] was 100%, the remaining binding at 1 µM [8] was 90% and the remaining binding at 1 µM [9] was 98%. It also gave a remaining binding at 1 µM [10] of 89%.
